Laboratory results published in BigSolDB 2.1.

Nc1nc(=O)[nH]cc1F
solubility (mole fraction)
Details	in 1,4-dioxane	in 2-butanone	in DMF	in DMSO	in acetone	in acetonitrile	in ethyl acetate	in isopropanol	in n-butanol	in n-propanol
283.15 K	1.13e-05	4.37e-05	0.00113	0.00559	6.9e-05	7e-06	3.5e-06	0.00016	0.000282	0.000222
288.15 K	1.51e-05	5.91e-05	0.00127	0.00611	8.62e-05	9.6e-06	4.5e-06	0.000204	0.000332	0.000272
293.15 K	1.92e-05	7.74e-05	0.00146	0.00675	0.000107	1.31e-05	6.2e-06	0.000253	0.000399	0.000334
298.15 K	2.37e-05	9.76e-05	0.00169	0.00754	0.000131	1.77e-05	8.6e-06	0.000314	0.000477	0.000406
303.15 K	2.82e-05	0.000121	0.00193	0.00838	0.000158	2.23e-05	1.14e-05	0.000382	0.000567	0.000489
308.15 K	3.43e-05	0.000149	0.0022	0.00932	0.000192	2.84e-05	1.46e-05	0.000461	0.000674	0.000577
313.15 K	4.17e-05	0.000184	0.00252	0.0103	0.000224	3.58e-05	1.93e-05	0.000548	0.000787	0.000677
318.15 K	5.08e-05	0.000223	0.00287	0.0115	0.000273	4.5e-05	2.45e-05	0.000643	0.000916	0.000792
323.15 K	6.07e-05	0.000271	0.00329	0.0129	0.000321	5.67e-05	3.11e-05	0.000757	0.00107	0.000923
